The results in this text go back to PMC5453931, “Cathelicidin-trypsin inhibitor loop conjugate represents a promising antibiotic candidate with protease stability” (Scientific Reports, 2017).

pKi: −log10 of the molar value. ≈ marks a conversion by molar mass, not a printed value. Where a SMILES comes first, the peptide text is derived from it. Bridges are numbered along the chain shown (N, C = ends).

The target of one assay is trypsin. In words: Trypsin inhibition assay (NBLAN hydrolysis, Dixon method). The class given is biochemical. The settings on record: 50 mM Tris–HCl pH 7.8, trypsin 0.1 mg/mL, 5 min pre-incubation at 37 °C, substrate NBLAN 48, 96, 192 μg/mL, 405 nm. On the procedure: The inhibition effect on the hydrolysis of synthetic chromogenic substrate by trypsin was assayed in 50 mM Tris–HCl, pH 7.8 buffer at room temperature. The trypsin of final concentration of 0.1 mg/mL and different amounts of the hybrid peptide (final concentrations ranging from 0 to 0.16 μg/mL) were pre-incubated for 5 min at 37 °C. N-α-Benzoyl-DL-arginine p-nitroanilide hydrochloride (NBLAN) was used as a substrate for trypsin. The reaction was initiated by the addition of NBLAN with a final concentration of 48, 96 and 192 μg/mL, respectively. The formation of yellow product, p-nitroaniline was monitored continuously at 405 nm[61]. The inhibition constant Ki of the hybrid peptides were determined according to the method of Dixon (1953)[62].

The subject of another assay is E. coli 08040726. In words: MIC, two-fold broth microdilution (second listing of the strain number). It is filed as cell-based. The note with it: Gram-negative, MH broth, 37 °C, 18 h, mean of three independent experiments in duplicates. On the procedure:
(§1) A two-fold broth microdilution method described in our previous paper was used to determine the antimicrobial activities of parental and hybrid peptides. More than 30 strains including Gram-negative bacteria, Gram-positive bacteria and fungi were used in the current assay, in which the standard strains were stored in our lab and the clinical strains were collected from local hospitals. Briefly, bacteria were incubated in Mueller-Hinton broth (MH broth) at 37 °C to exponential phase and diluted to 10^6 CFU/mL. A serial dilution of peptide sample were prepared in 96-well microtiter plates (50 μL) and mixed with equal volume of microbial inoculums (50 μL). The plate was slowly shaken in the microbial incubator, and measured at A595 after incubation at 37 °C for 18 h. The minimal concentrations at which no microbial growth occurred were recorded as MIC (minimal inhibitory concentration) values. The traditional antibiotic ampicillin was used as positive control. The results are shown in an average of the MICs obtained from three independent experiments.

A further assay relates to Vibrio Parahaemolyticus. In words: MIC, two-fold broth microdilution. It is filed as cell-based. The settings on record: Aquatic pathogenic bacteria; two-fold broth microdilution, 37 °C, 18 h; mean of three independent experiments in duplicates. On the procedure:
as §1
On the technique in general: Dilution methods test growth across graded concentrations, often in twofold steps.

The next assay relates to E. Coli 08032813. In words: MIC, two-fold broth microdilution. The settings on record: Gram-negative; two-fold broth microdilution, MH broth, 37 °C, 18 h; mean of three independent experiments in duplicates. The class given is cell-based. On the procedure:
as §1

Assay [1] concerns Staphylococcus epidermidis. In words: MIC, two-fold broth microdilution. The settings on record: Gram-positive; two-fold broth microdilution, MH broth, 37 °C, 18 h; mean of three independent experiments in duplicates. The class given is cell-based. On the procedure: as §1
For assay [2], the system named is Shigella dysenteriae 0804203. The assay is described as follows: microbe, parasite or virus in culture. The class given is cell-based. The note with it: Gram-negative; two-fold broth microdilution, MH broth, 37 °C, 18 h; mean of three independent experiments in duplicates. On the procedure: as §1
Assay [3] concerns Candida albicans 08030102. In words: microbe, parasite or virus in culture. It is filed as cell-based. The settings on record: Fungi; two-fold broth microdilution, 37 °C, 18 h; mean of three independent experiments in duplicates. On the procedure: as §1
In assay [4] the test system is Bacillus subtilis 08042313. The assay is described as follows: microbe, parasite or virus in culture. The settings on record: Gram-positive; two-fold broth microdilution, MH broth, 37 °C, 18 h; mean of three independent experiments in duplicates. It is filed as cell-based. On the procedure: as §1
The test system of another assay is Aeromonas veronii. The assay is described as follows: microbe, parasite or virus in culture. The note with it: Aquatic pathogenic bacteria; two-fold broth microdilution, 37 °C, 18 h; mean of three independent experiments in duplicates. It is filed as cell-based. On the procedure:
as §1

The next assay has as its system Vibrio brasiiensis. The assay is described as follows: microbe, parasite or virus in culture. It is filed as cell-based. The settings on record: Aquatic pathogenic bacteria; two-fold broth microdilution, 37 °C, 18 h; mean of three independent experiments in duplicates. On the procedure:
as §1

The subject of another assay is P. Aeruginosa 08021015. The assay is described as follows: microbe, parasite or virus in culture. It is filed as cell-based. The settings on record: Gram-negative; two-fold broth microdilution, MH broth, 37 °C, 18 h; mean of three independent experiments in duplicates. On the procedure:
as §1

The next assay concerns S. Aureus 08032810. The assay is described as follows: microbe, parasite or virus in culture. It is filed as cell-based. The note with it: Gram-positive; two-fold broth microdilution, MH broth, 37 °C, 18 h; mean of three independent experiments in duplicates. As for the experimental part: as §1
A further assay concerns K. Pneumoniae 08040202. In words: microbe, parasite or virus in culture. It is filed as cell-based. The note with it: Gram-negative; two-fold broth microdilution, MH broth, 37 °C, 18 h; mean of three independent experiments in duplicates. As for the experimental part:
as §1

In another assay the test system is S. Aureus 08032706. The assay is described as follows: microbe, parasite or virus in culture. The class given is cell-based. The note with it: Gram-positive; two-fold broth microdilution, MH broth, 37 °C, 18 h; mean of three independent experiments in duplicates. On the procedure:
as §1

The subject of assay [5] is Escherichia coli ATCC25922. In words: microbe, parasite or virus in culture. The note with it: Gram-negative; two-fold broth microdilution, MH broth, 37 °C, 18 h; mean of three independent experiments in duplicates. It is filed as cell-based. As for the experimental part:
as §1

A further assay relates to Vibrio cholerae. The assay is described as follows: microbe, parasite or virus in culture. The note with it: Aquatic pathogenic bacteria; two-fold broth microdilution, 37 °C, 18 h; mean of three independent experiments in duplicates. The class given is cell-based. As for the experimental part:
as §1

Another assay relates to K. Pneumoniae 08031012. In words: microbe, parasite or virus in culture. The class given is cell-based. The settings on record: Gram-negative; two-fold broth microdilution, MH broth, 37 °C, 18 h; mean of three independent experiments in duplicates. As for the experimental part: as §1
A further assay has as its system Candida glabrata 08A802. In words: microbe, parasite or virus in culture. It is filed as cell-based. The settings on record: Fungi; two-fold broth microdilution, 37 °C, 18 h; mean of three independent experiments in duplicates. On the procedure:
as §1

The subject of a further assay is Aeromonas sobria. The assay is described as follows: microbe, parasite or virus in culture. The note with it: Aquatic pathogenic bacteria; two-fold broth microdilution, 37 °C, 18 h; mean of three independent experiments in duplicates. It is filed as cell-based. As for the experimental part: as §1
A further assay deals with E. Coli 08032823. In words: microbe, parasite or virus in culture. The note with it: Gram-negative; two-fold broth microdilution, MH broth, 37 °C, 18 h; mean of three independent experiments in duplicates. The class given is cell-based. On the procedure: as §1
In assay [6] the test system is Enterococcus faecium 08052315. In words: microbe, parasite or virus in culture. The class given is cell-based. The note with it: Gram-positive; two-fold broth microdilution, MH broth, 37 °C, 18 h; mean of three independent experiments in duplicates. As for the experimental part:
as §1

For another assay, the system named is 08030209. The assay is described as follows: microbe, parasite or virus in culture. It is filed as cell-based, Arcyria cinerea. The note with it: Fungi; two-fold broth microdilution, 37 °C, 18 h; mean of three independent experiments in duplicates. On the procedure:
as §1

A word on the pKi: it is the Ki on a negative log10 scale, so that one unit is a factor of ten. Lower therefore signals a high Ki. At trypsin, `CC[C@H](C)[C@@H]1NC(=O)[C@H](CO)NC(=O)[C@H](CCCCN)NC(=O)[C@H]([C@@H](C)O)NC(=O)[C@H](Cc2c[nH]c3ccccc23)NC(=O)[C@@H](N)CSSC[C@@H](C(=O)N[C@@H](CCCCN)C(=O)N[C@@H](Cc2ccccc2)C(=O)N[C@@H](Cc2ccccc2)C(=O)N[C@@H](CCCCN)C(=O)N[C@@H](CCCNC(=N)N)C(=O)N[C@@H](CC(C)C)C(=O)N[C@@H](CC(C)C)C(=O)N[C@@H](CCCCN)C(=O)N[C@@H](CO)C(=O)N[C@H](C(=O)N[C@@H](CCCNC(=N)N)C(=O)N[C@@H](CCCNC(=N)N)C(=O)N[C@@H](C)C(=O)N[C@H](C(=O)N[C@@H](CCCCN)C(=O)N[C@@H](CCCCN)C(=O)N[C@@H](Cc2ccccc2)C(N)=O)C(C)C)C(C)C)NC(=O)[C@@H]2CCCN2C(=O)[C@H](CCCCN)NC(=O)[C@@H]2CCCN2C(=O)[C@@H]2CCCN2C1=O` [TIH3] (H-CWTKSIPPKPCKFFKRLLKSVRRAVKKF-NH2; disulfide 1-11) showed a negative-log Ki (pKi) of 5.12. The “MIC E. Coli 08040726 (second line with this strain number)” value in the assay with E. coli 08040726 is “— (no detectable activity in MIC assay in dose of 200 µg/mL or in trypsin inhibition assay at concentration of 160 μg/mL)”. Also, the “MIC Vibrio Parahaemolyticus” value in the assay on Vibrio Parahaemolyticus amounted to 37.5 µg/mL (≈ 11.1 µM). For the same compound, the “MIC E. Coli 08032813” value in the assay on E. Coli 08032813 is “— (no detectable activity in MIC assay in dose of 200 µg/mL or in trypsin inhibition assay at concentration of 160 μg/mL)”. In assay [1], the “MIC Staphylococcus epidermidis” value was “— (no detectable activity in MIC assay in dose of 200 µg/mL or in trypsin inhibition assay at concentration of 160 μg/mL)”. Moreover, in assay [2], the “MIC Shigella dysenteriae 0804203” value is reported as “— (no detectable activity in MIC assay in dose of 200 µg/mL or in trypsin inhibition assay at concentration of 160 μg/mL)”. For the same compound, in assay [3], the “MIC Candida albicans 08030102” value is “— (no detectable activity in MIC assay in dose of 200 µg/mL or in trypsin inhibition assay at concentration of 160 μg/mL)”. In addition, in [4], the “MIC Bacillus subtilis 08042313” value is “— (no detectable activity in MIC assay in dose of 200 µg/mL or in trypsin inhibition assay at concentration of 160 μg/mL)”. In the assay on Aeromonas veronii, the “MIC Aeromonas veronii” value is listed as “— (no detectable activity in MIC assay in dose of 200 µg/mL or in trypsin inhibition assay at concentration of 160 μg/mL)”. In addition, in the assay with Vibrio brasiiensis, the “MIC Vibrio brasiiensis” value was “— (no detectable activity in MIC assay in dose of 200 µg/mL or in trypsin inhibition assay at concentration of 160 μg/mL)”. In addition, the “MIC P. Aeruginosa 08021015” value in the assay on P. Aeruginosa 08021015 is on record as “— (no detectable activity in MIC assay in dose of 200 µg/mL or in trypsin inhibition assay at concentration of 160 μg/mL)”. Besides, the “MIC S. Aureus 08032810” value against S. Aureus 08032810 is “— (no detectable activity in MIC assay in dose of 200 µg/mL or in trypsin inhibition assay at concentration of 160 μg/mL)”. Further, in the assay on K. Pneumoniae 08040202, the “MIC K. Pneumoniae 08040202” value is given as “— (no detectable activity in MIC assay in dose of 200 µg/mL or in trypsin inhibition assay at concentration of 160 μg/mL)”. Also, in the assay with S. Aureus 08032706, the “MIC S. Aureus 08032706” value is recorded as “— (no detectable activity in MIC assay in dose of 200 µg/mL or in trypsin inhibition assay at concentration of 160 μg/mL)”. Moreover, in assay [5], the “MIC Escherichia coli ATCC25922” value is recorded as “— (no detectable activity in MIC assay in dose of 200 µg/mL or in trypsin inhibition assay at concentration of 160 μg/mL)”. For the same compound, in the assay with Vibrio cholerae, the “MIC Vibrio cholerae” value is on record as “— (no detectable activity in MIC assay in dose of 200 µg/mL or in trypsin inhibition assay at concentration of 160 μg/mL)”. Also, the “MIC K. Pneumoniae 08031012” value in the assay on K. Pneumoniae 08031012 is reported as “— (no detectable activity in MIC assay in dose of 200 µg/mL or in trypsin inhibition assay at concentration of 160 μg/mL)”. Moreover, the “MIC Candida glabrata 08A802” value against Candida glabrata 08A802 is “— (no detectable activity in MIC assay in dose of 200 µg/mL or in trypsin inhibition assay at concentration of 160 μg/mL)”. For the same compound, the “MIC Aeromonas sobria” value in the assay with Aeromonas sobria is on record as “— (no detectable activity in MIC assay in dose of 200 µg/mL or in trypsin inhibition assay at concentration of 160 μg/mL)”. Besides, the “MIC E. Coli 08032823” value against E. Coli 08032823 is reported as “— (no detectable activity in MIC assay in dose of 200 µg/mL or in trypsin inhibition assay at concentration of 160 μg/mL)”. In addition, in assay [6], the “MIC Enterococcus faecium 08052315” value was “— (no detectable activity in MIC assay in dose of 200 µg/mL or in trypsin inhibition assay at concentration of 160 μg/mL)”. Also, in the assay with 08030209, the “MIC Arcyria cinerea 08030209” value is given as “— (no detectable activity in MIC assay in dose of 200 µg/mL or in trypsin inhibition assay at concentration of 160 μg/mL)”.
